Laboratory results published in PMC4791210 (International immunopharmacology, 2015).

Assays:
[1] = tested on: human neutrophils; details: cited from earlier work; for Inhibition of fMLF-induced Ca2+ mobilization in human neutrophils / Inhibition of fMLF-induced Ca2+ flux in neutrophils: result in words
[2] = tested on: fMLF-stimulated neutrophils; details: list of responses inhibited; ref per compound in References column of Table 1; cited from earlier work
[3] = tested on: human neutrophils; details: result in words; no data shown; cited from earlier work
[4] = biological target: T1, FPR1 (Homo sapiens, UniProt P21462); details: result in words; no data shown; cited from earlier work
T1 sequence (P21462 1-350): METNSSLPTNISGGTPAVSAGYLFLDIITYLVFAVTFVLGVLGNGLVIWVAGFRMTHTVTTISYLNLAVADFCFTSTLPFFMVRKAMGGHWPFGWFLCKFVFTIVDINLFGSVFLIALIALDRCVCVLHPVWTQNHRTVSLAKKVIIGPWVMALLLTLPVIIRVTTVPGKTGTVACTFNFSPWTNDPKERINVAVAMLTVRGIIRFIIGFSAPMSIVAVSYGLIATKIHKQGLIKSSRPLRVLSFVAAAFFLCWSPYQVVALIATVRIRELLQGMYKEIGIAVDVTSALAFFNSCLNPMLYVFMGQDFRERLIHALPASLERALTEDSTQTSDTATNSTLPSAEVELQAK

[5] = biological target: T1, FPR1; details: result in words; cited from earlier work
[6] = biological target: T1, FPR1; details: cited from earlier work
[7] = tested on: human neutrophils; test: Direct activation of Ca2+ flux in human neutrophils; type: cell-based; details: Neutrophil, read-out: Human Neutrophils Activation (EC50, μM)
[8] = biological target: T1, FPR1; test: Direct activation of Ca2+ flux in FPR1 transfected HL-60 cells; type: cell-based
[9] = tested on: FPR1; details: high concentrations; cited from earlier work
[10] = tested on: FPR1; details: read-out: IC50, blocking of fMLF binding to FPR1; cited from earlier work
[11] = biological target: T1, FPR1; details: human neutrophils; cited from earlier work
[12] = tested on: neutrophils; details: read-out: IC50, inhibition of fMLF-stimulated neutrophil degranulation; cited from earlier work
[13] = tested on: fMLF-stimulated neutrophils; details: result in words; cited from earlier work
[14] = tested on: rat neutrophils; details: fMLF-stimulated rat neutrophils, cited from earlier work
[15] = tested on: monocytes; details: read-out: IC50, inhibition of fMLF-induced monocyte locomotion; cited from earlier work
[16] = tested on: FPR1; details: cited from earlier work
[17] = biological target: T1, FPR1; details: read-out: IC50, displacement of [3H]-fMLF; FPR1-transfected RBL cells; cited from earlier work
[18] = tested on: FPR2; details: cited from earlier work
[19] = animal experiments; cited from earlier work
[20] = animal experiments; cited from earlier work; remark: listed apart in the source

Compound: O=c1c(-c2ccccc2)coc2cc(O)ccc12 [7-hydroxyisoflavone]
- Inhibition of fMLF-induced Ca2+ mobilization in human neutrophils [1]: none

Compound: COc1ccc(CCN(C)C(=O)/C=C/c2ccc(O)cc2)cc1 [Ailanthamide]
- fMLF-induced Responses Inhibited in Neutrophils [2]: O2^−· production, HNE release

Compound: COc1cc2oc(=O)ccc2c2c1C=CC(C)(C)O2 [Alloxanthoxyletin]
- fMLF-induced Responses Inhibited in Neutrophils [2]: O2^−· production, HNE release

Compound: CC(=O)OCC(Cc1ccccc1)NC(=O)C(Cc1ccccc1)NC(=O)c1ccccc1 (centres unmarked) [Aurantiamide acetate, aurantiamide acetate]
- fMLF-induced Responses Inhibited in Neutrophils [2]: O2^−· production

Compound: COc1c2ccoc2cc2oc(=O)ccc12 [Bergapten]
- fMLF-induced Responses Inhibited in Neutrophils [2]: O2^−· production, HNE release

Compound: COc1ccc(-c2coc3cc(O)cc(O)c3c2=O)cc1 [Biochanin A]
- Direct agonist activity in primary neutrophils [3]: direct agonist activity
- Inhibition of fMLF-induced Ca2+ mobilization in human neutrophils [1]: inhibited
- Direct agonist activity in FPR1-HL60 cells [4]: direct agonist activity
- Inhibition of fMLF-induced Ca2+ flux in FPR1-HL60 cells [5]: inhibited
- Inhibition of binding of labeled ligand (WKYMVm-FITC) to FPR1-HL60 cells [6]: did not inhibit binding

Compound: C/C(=C/Cc1c(O)cc2oc(C)cc(=O)c2c1O)CO [Cnidimol A]
- fMLF-induced Responses Inhibited in Neutrophils [2]: O2^−· production, HNE release

Compound: COc1c(O)ccc2c1cnc1c3cc4c(cc3ccc21)OCO4 [Decarine]
- fMLF-induced Responses Inhibited in Neutrophils [2]: O2^−· production, HNE release

Compound: C=C(C)C(O)Cc1c(O)ccc2ccc(=O)oc12 (centres unmarked) [Demethylauraptenol]
- fMLF-induced Responses Inhibited in Neutrophils [2]: O2^−· production, HNE release

Compound: C[C@H](CCC(=O)O)[C@H]1CC[C@H]2[C@@H]3CC[C@@H]4C[C@H](O)CC[C@]4(C)[C@H]3C[C@H](O)[C@]12C [Deoxycholic acid (DCA), Deoxycholic acid]
- EC50 [7]: 49 ± 5.4 µM
- EC50 [8]: 40.9 ± 5.5 µM
- Concentrations that antagonize FPR1 and inhibit 3H-fMLF binding [9]: ≥ 100 µM

Compound: C=C(C)[C@@H]1CC[C@]2(C(=O)O)CC[C@]3(C)[C@H](CC[C@@H]4[C@@]5(C)CC[C@@H](O)C(C)(C)[C@@H]5CC[C@]43C)[C@@H]12 [Epibetulinic acid]
- fMLF-induced Responses Inhibited in Neutrophils [2]: O2^−· production

Compound: Cc1cc2ccc3c(c2cc1O)CCC(=O)C3(C)C [Flueggrene A]
- fMLF-induced Responses Inhibited in Neutrophils [2]: O2^−· production, HNE release

Compound: C=C(C)[C@@H](CC=C(C)C)C[C@@]12C[C@@H](CC=C(C)C)C(C)(C)[C@]3(C=CC(C)(C)OC3=C(C(=O)c3ccccc3)C1=O)C2=O [Garcimultiflorone B]
- fMLF-induced Responses Inhibited in Neutrophils [2]: O2^−· production, HNE release

Compound: COC(=O)C(C)CCC[C@]1(C)CC[C@]2(O1)C(=O)C(C)=C(C)[C@@]2(O)C(C)=O (some centres unmarked) [Hirsutocospiro A]
- fMLF-induced Responses Inhibited in Neutrophils [2]: O2^−· production, HNE release

Compound: CC(C)=CCOc1c2occc2cc2ccc(=O)oc12 [Imperatorin]
- EC50 [7]: 31.1 ± 3.6 µM
- EC50 [8]: 50.9 ± 4.7 µM
- fMLF-induced Responses Inhibited in Neutrophils [2]: O2^−· production

Compound: C=C1[C@H]2[C@@H]([C@@H](C(C)C)C[C@@H]1O)[C@H]1O[C@@H]2C[C@](C)(O)[C@@H](OC(=O)Cc2ccccc2)CC[C@@]1(C)OC(=O)CCC [Klymollin M]
- fMLF-induced Responses Inhibited in Neutrophils [2]: O2^−· production, HNE release

Compound: COc1ccc(C[C@H]2COC(=O)[C@@H]2Cc2ccc(O)c(O)c2)cc1OC [Lignan PP-6, (2R, 3R)-2-(3′,4′-dihydroxybenzyl)-3-(3″,4″-dimethoxybenzyl)butyrolactone]
- IC50 [10]: ~1.5 µM

Compound: COc1cc(O)c2c(=O)c(OC)c(-c3ccc(O)c(OC)c3)oc2c1 [MSF-2, 5-hydroxy-2-(4-hydroxy-3-methoxyphenyl)-3,7-dimethoxy-4H-chromen-4-one]
- Interference with fMLF binding [11]: did not interfere

Compound: CC1(C)CC[C@]2(C(=O)O)CC[C@]3(C)C(=CC[C@@H]4[C@@]5(C)CC[C@H](O)C(C)(C)[C@@H]5CC[C@]43C)[C@@H]2C1 [Oleanolic acid]
- fMLF-induced Responses Inhibited in Neutrophils [2]: O2^−· production, HNE release

Compound: CC(C)=CCc1c(O)ccc2ccc(=O)oc12 [Osthenol]
- fMLF-induced Responses Inhibited in Neutrophils [2]: O2^−· production, HNE release

Compound: COC1=CC(=O)c2cc(-c3ccc(OC)c(O)c3)c3cc(O)c(OC)cc3c2C1=O [Pterolinus K]
- fMLF-induced Responses Inhibited in Neutrophils [2]: O2^−· production, HNE release

Compound: C=CCc1ccc(O)c(-c2cc(O)ccc2O)c1 [Randaiol]
- fMLF-induced Responses Inhibited in Neutrophils [2]: O2^−· production and HNE release

Compound: C=C(CO)[C@@H]1CC[C@]2(C)CC[C@]3(C)[C@H](CC[C@@H]4[C@@](C)(CC(=O)O)[C@H](C(C)(C)C(=O)O)CC[C@]43C)[C@@H]12 [Triterpene 17, 30-hydroxy-2,3-seco-lup-20(29)-ene-2,3-dioic acid]
- fMLF-induced Responses Inhibited in Neutrophils [2]: O2^−· production, HNE release

Compound: COc1cc(CCCc2c(OC)cc(O)c(OC)c2OC)ccc1O [Viscolin]
- Inhibition of fMLF-induced Ca2+ flux in neutrophils [1]: did not inhibit

Compound: CC1(C)C=Cc2cc3ccc(=O)oc3cc2O1 [Xanthyletin]
- fMLF-induced Responses Inhibited in Neutrophils [2]: O2^−· Production, HNE release

Compound: COc1ccc(-c2coc3cc(O)c(OC)cc3c2=O)cc1 [afrormosin]
- Inhibition of fMLF-induced Ca2+ mobilization in human neutrophils [1]: none
- IC50 [12]: ~67 µM

Compound: C=C(C)[C@@H]1CC[C@]2(C(=O)O)CC[C@]3(C)[C@H](CC[C@@H]4[C@@]5(C)CC[C@H](O)C(C)(C)[C@@H]5CC[C@]43C)[C@@H]12 [betulinic acid]
- Effect on fMLF-induced release of HNE [13]: did not affect

Compound: COc1c(C(=O)CCc2ccccc2)c(O)c(O)c2c1/C(=C/c1ccccc1)C(=O)O2 [bractelactone]
- Inhibition of fMLF-induced Ca2+ flux in neutrophils [1]: did not inhibit

Compound: O=c1c(-c2ccc(O)cc2)coc2cc(O)ccc12 [daidzein]
- Inhibition of fMLF-induced Ca2+ mobilization in human neutrophils [1]: none

Compound: COc1ccc(-c2coc3cc(O)ccc3c2=O)cc1 [formononetin]
- Inhibition of fMLF-induced Ca2+ mobilization in human neutrophils [1]: none

Compound: O=c1c(-c2ccc(O)cc2)coc2cc(O)cc(O)c12 [genistein]
- Inhibition of fMLF-induced Ca2+ mobilization in human neutrophils [1]: none and did not antagonize
- Inhibition of fMLF-induced Ca2+ flux in FPR1-HL60 cells [5]: did not antagonize

Compound: COc1c(O)c(OC)c2c(c1OC)O[C@H](c1ccccc1)CC2=O [isopedicin]
- Inhibition of fMLF-induced Ca2+ flux in neutrophils [1]: did not inhibit

Compound: CC[C@H](CC[C@@H](C)[C@H]1CC[C@H]2[C@@H]3CC(=O)C4=CC(=O)CC[C@]4(C)[C@H]3CC[C@]12C)C(C)C [stigmast-4-ene-3,6-dione]
- Concentrations that inhibited O2−· production [14]: 30 to 100 µM

Compound: CC[C@H](CC[C@@H](C)[C@H]1CC[C@H]2[C@@H]3CC(=O)C4CC(=O)CC[C@]4(C)[C@H]3CC[C@]12C)C(C)C (some centres unmarked) [stigmastane-3,6-dione]
- Inhibition of O2−· production ([14]; result in words): non-active

Compound: C[C@H](CCC(=O)NCCS(=O)(=O)O)[C@H]1CC[C@H]2[C@@H]3[C@@H](O)C[C@@H]4C[C@H](O)CC[C@]4(C)[C@H]3CC[C@]12C [tauroursodeoxycholic acid]
- IC50 ([1]; read-out: IC50, inhibition of fMLF-induced Ca2+ mobilization): ~500 µM

Compound: (+)-Episesamin
- fMLF-induced Responses Inhibited in Neutrophils [2]: O2^−· production, HNE release

Compound: Aristolatams IIIa
- fMLF-induced Responses Inhibited in Neutrophils [2]: O2^−· production, HNE release

Compound: Berryammone A
- fMLF-induced Responses Inhibited in Neutrophils [2]: O2^−· production, HNE release

Compound: Berryammone B
- fMLF-induced Responses Inhibited in Neutrophils [2]: O2^−· production, HNE release

Compound: Lawsochylin A
- fMLF-induced Responses Inhibited in Neutrophils [2]: O2^−· production, HNE release

Compound: Lawsonaphthoate A
- fMLF-induced Responses Inhibited in Neutrophils [2]: O2^−· production, HNE release

Compound: cyclized SRSRY: cyclized form of urokinase receptor-derived peptide Ser-Arg-Ser-Arg-Tyr (not fully specified; cyclized; printed: Ser-Arg-Ser-Arg-Tyr)
- IC50 [15]: 0.01 nM
- Binding of FITC-labeled fMLF to FPR1 transfected cells [16]: inhibited binding

Compound: cyclosporine A [CsA]
- IC50 [17]: 1.8 µM
- Inhibitory effects on FPR2-mediated cellular functions [18]: did not exhibit any obvious inhibitory effects

Compound: cyclosporine H [CsH]
- Inhibitory effects on FPR2-mediated cellular functions [18]: did not exhibit any obvious inhibitory effects
- Effect on fMLF-induced analgesia [19]: blocked
- Effect on acute inflammatory response evoked by cigarette smoke [20]: attenuated

Compound: hecogenin
- Concentrations that inhibited O2−· production [14]: 30 to 100 µM
